Experiment: Human HepG2 cell viability assay in 384 well format
Type: toxicity, cell-based
Set-up: dose 125 nL, time 70.5 hour; cytotoxicity at 70.5 h: concentration not given beside the values
Conditions: HepG2 cells, read-out: Inhibition

In order of rising cytotoxicity at 70.5 h:
1. Cc1occc1C(=O)NCC(=O)NCCCOc1ccc(F)cc1  -17.7%
2. CC(C)N1CCC(C(=O)NC[C@H]2CCc3ccccc3O2)CC1  -17.4%
3. CC(C)CN1CCS(=O)(=O)[C@@H]2CCN(S(=O)(=O)C3CC3)CC[C@@H]21  -16.5%
4. O=S(=O)(CCCNCCn1cccn1)c1ccccc1  -14.5%
5. CC(=O)c1cccc(NC(=O)CN2CCCCC2C(=O)N2CCCC2)c1 (stereo unspecified)  -13.4%
6. CCNc1cc2c(nn1)CCN(C(=O)C1Cc3ccccc3O1)C2 (stereo unspecified)  -12.9%
7. Cc1ccc(C)c(S(=O)(=O)NCCC(=O)NCc2ccoc2)c1  -11.7%
8. Cc1noc(C(C)N2CCN(CCCN3CCCC3=O)CC2)n1 (stereo unspecified)  -11.4%
9. CCS(=O)(=O)N1CCC(Nc2ccc(C#N)cc2F)CC1  -10.9%
10. COc1cc(Oc2ccc(C(F)(F)F)cn2)ccc1CN1CCCC1  -10.7%
11. COCC1c2nnn(CC3CC3)c2CCN1C(=O)c1cc(C)[nH]c1C (stereo unspecified)  -9.95%
12. O=C(O)c1c(Cl)ncn1-c1ccccc1  -9.78%
13. Cc1cccc(CN2CCCn3c(nnc3CN3CCCC3=O)C2)n1  -9.11%
14. O=C1N(CC2CC2)CCC12CCN(Cc1ccoc1)CC2  -8.87%
15. c1ccc(CN2C[C@@H]3CC[C@H](C2)N(Cc2nnc(C4CC4)o2)C3)cc1  -8.78%
16. CC(=O)N1CC[C@H]2[C@H](C[C@@H](Cn3cncn3)N2c2nccs2)C1  -8.31%
17. O=C(NCCO)C1CN(c2cncnc2)CCO1 (stereo unspecified)  -8.3%
18. Cc1cc2nc(C(C)C)cc(NCCc3cccn3C)n2n1  -8.08%
19. O=C(c1ccnnc1)N1C[C@@H]2COC[C@]2(COCC2CC2)C1  -7.55%
20. COC(=O)c1sccc1S(=O)(=O)N1CCC(Oc2cnccn2)CC1  -7.44%
21. COc1ccc(-c2nnc(SCC(=O)NCC(C)C)[nH]2)c(OC)c1  -7.35%
22. CC(=O)N1CCOC(c2c(C(=O)O)sc3ccccc23)C1 (stereo unspecified)  -7.22%
23. COC(=O)c1ccc(NC(=O)CCNCc2ccco2)cc1  -7.22%
24. Cc1nc2c(c(N3CCCOCC3)n1)CCN(c1nccs1)CC2  -6.82%
25. CN(C)C(CNC(=O)NCc1ccco1)c1cccs1 (stereo unspecified)  -6.4%
26. Cc1cc(F)ccc1S(=O)(=O)N1CCN(C)Cc2ccccc21  -6.39%
27. COc1cc(Cl)ccc1C(=O)NCc1nncn1C  -6.32%
28. CC(c1ccco1)N(C(=O)COc1ccc(C#N)cc1)C1CC1 (stereo unspecified)  -6.31%
29. O=C(Cn1cccnc1=O)NC(Cc1ccsc1)c1cccnc1 (stereo unspecified)  -6.19%
30. O=C(NCc1nncn1C1CC1)c1ccccc1OCC1CC1  -5.93%
31. CC(C)Nc1nc(O)cc(C2CC(=O)N(Cc3ccccn3)C2)n1 (stereo unspecified)  -5.33%
32. COCCCNC(=O)c1cn(C(C)(C)C)c2ncccc12  -5.22%
33. COc1cccc(COCC(=O)N2CCN(S(C)(=O)=O)CC2)c1  -4.61%
34. O=C1N[C@@H]2CCN(C(=O)N3CCOCC3)[C@@H]2C(=O)N1Cc1ccccc1  -4.61%
35. CCC(=O)N1CCN(c2ncnc3cc4c(cc23)OCCO4)CC1  -4.42%
36. CCN1CCN(C(=O)c2cnc(Cc3c(Cl)cccc3Cl)nc2O)CC1  -4.18%
37. CCn1c(N)nc2cc(C(=O)NCCNc3ncccc3C)cnc21  -3.99%
38. O=C(NCC1(O)CCOC1)c1ccccc1Cl (stereo unspecified)  -3.89%
39. Cc1ccc(CNC(=O)c2c[nH]nc2NC(=O)COCC2CC2)cc1  -3.76%
40. CN(CC(=O)NCC1CCCCC1)S(=O)(=O)c1cccnc1  -3.39%
41. Cn1cc(CN2C[C@H]3CCC[C@@]3(COc3ccccn3)C2)cn1  -3.17%
42. O=S1(=O)N(c2ccccc2)C[C@H](O)[C@]12CCNC2  -2.92%
43. O=C(CCc1ccco1)NCC1CCCN1c1cccnn1 (stereo unspecified)  -2.58%
44. CCn1cnnc1CNC(=O)N1CCN(CCc2ccccc2)CC1  -2.4%
45. COc1ccccc1S(=O)(=O)NCC(c1cccn1C)N(C)C (stereo unspecified)  -2.15%
46. O=C(CCN1CCCCC1)Nc1c2c(cc3c1CCC3)CCC2  -1.77%
47. Cc1ccoc1C(=O)N1CC[C@@H]2CN(C3CCOCC3)CCO[C@@H]2C1  -0.955%
48. C[C@H](O)CNc1cc(-c2ccncc2)ncn1  -0.809%
49. CCNC(=O)CN1CCN(Cc2nc3c(F)cccc3n2CC)CC1  0.0175%
50. Cc1cc(C[C@@H]2COC[C@@H]2NC(=O)Cn2c(=O)oc3ccccc32)on1  1.37%
51. CCN(Cc1noc(C2CC2)n1)Cc1ccc(C#N)cc1F  1.6%
52. C[C@@H](O)[C@H](NC(=O)c1csc2nc(-c3ccccc3F)cn12)C(N)=O  2.4%
53. CC(C)c1ncc(CN2CCC(O)(c3ccccc3F)CC2)cn1  2.86%
54. CC(C)c1cc(NC(CCO)c2ccccc2)n2nccc2n1 (stereo unspecified)  3.68%
55. Cc1sc2nc(SC(C)c3nc(C(C)C)no3)nc(N)c2c1C (stereo unspecified)  3.75%
56. CC(=O)N1CCN(c2ccccc2CNc2cncc(C)c2)CC1  4.13%
57. COc1cc(C(=O)N2CCC(Nc3cccnc3)CC2)ccc1C  6.09%
58. O=C(c1cc(Br)ccc1-n1cnnn1)N1CCCCC1  6.11%
59. Cc1nc(COCC2CNCc3nccn3C2)cs1 (stereo unspecified)  7.13%
60. CCc1ccc(CCNc2ncnc3c2CCN(C(=O)C2CC2)C3)cc1  7.48%
61. CS(=O)(=O)N1CCC2(CCCN(Cc3ccccn3)C2)C1 (stereo unspecified)  9.19%
62. CC1(C)CCC(C(=O)N2CCCO2)c2ccccc21 (stereo unspecified)  9.21%
63. Cc1ccccc1S(=O)(=O)CCOC(C)C  9.57%
64. OCCOc1ccccc1CN1CCCC(O)(CO)C1 (stereo unspecified)  9.78%
65. CC(C)(C)OC(=O)N1CCCc2ccc(NCc3ncc[nH]3)cc21  9.84%
66. CCN1CCN(C(=O)NCc2cccnc2-n2cccn2)CC1  10.5%
67. Cc1ccc(NC2CCN(C(=O)CCc3cscn3)CC2)nn1  11.4%
68. N#Cc1c(Cl)nsc1NCc1ccc(N2CCSCC2)cc1  12.7%
69. CN1C[C@@H]2COC[C@]2(C(=O)NCc2cccs2)C1  13.4%
70. O=C(C1CC1)N1CCc2c(ncnc2NCCc2nc3c(s2)CCC3)C1  13.5%
71. Cc1nnc(C(C)N2CCCN(Cc3noc(C4CC4)n3)CC2)o1 (stereo unspecified)  13.7%
72. Cn1ncc2c(N3CCN(C(N)=O)CC3)nc(C3CCCC3)nc21  16.3%
73. CN(CC1(CO)CCOCC1)[C@@H]1c2ccccc2C2(CCNCC2)[C@H]1O  19%
74. CC(C)CS(=O)(=O)N1CCC2(CN(c3cccc(F)c3)C(=O)CN2C)C1 (stereo unspecified)  19.6%
75. CCc1cc(=O)[nH]c2nnc(SCC(=O)N3CCC(C)CC3)n12  19.7%
76. CC(C)c1nccn1C(C)C(=O)NCc1noc(Cc2cccs2)n1 (stereo unspecified)  21.9%
77. COc1cn(CC(=O)N2CCN(c3ccc(F)cc3)CC2)c(C)cc1=O  27.9%
78. Nc1cc(N2CCCC(CO)(Cc3ccccc3F)C2)nc(N)n1 (stereo unspecified)  28.8%
79. CCc1nccn1C1CCCN(C(=O)c2ccc3[nH]c(=O)[nH]c3c2)C1 (stereo unspecified)  29%
80. COc1ccc(CN2CCc3ncnc(OC(C)C)c3CC2)cc1  43.9%
81. COCCc1noc(CN2CCCC2Cn2nc(C)nc2C)n1 (stereo unspecified)  44.8%

From ChEMBL document CHEMBL3507680, “University of Dundee, Gates Library screen for HepG2 cell viability”
